Results on two compounds are retold here after US4687773A, “(+)-N-N-propylnorapomorphine and selective limbic activity” (priority 1985, dated 1987).

Read-outs that look alike come from different tables or passages of the source.

Experiment [1] addresses Dopamine Receptors. The format is binding, calf. Particulars: ligand [3H]APO (0.5 nM).
For experiment [2], the target named is Dopamine Receptors. The format is binding, calf. The conditions noted are these: ligand [3H]ADTN (0.5 nM).
For experiment [3], the system named is dopamine (DA) receptors in the basal ganglia (corpus striatum). The experiment in a line: Stereotyped licking and gnawing behavior rating in the rat. The format is in vivo. Particulars: Table 4. The source says: Stereotypy: The mean stereotyped licking and gnawing behavioral rating scheme developed by Tarsy and Baldessarini^8 was used. […]
Stereotypy scores were rated for one hour as described in […]

Experiment [4] deals with dopamine (DA) receptors in the limbic system and basal ganglia. The experiment is described as follows: Total motor activity, electronic activity monitor (EAM). The experiment is classed as in vivo, rat. The conditions noted are these: Table 4. The protocol: (§1) Activity: Overall motor activity was measured by use of the self-recording Stoelting electronic activity monitor method described previously by Stewart, Campbell, Sperk, and Baldessarini^9. Total activity is obtained by setting monitor sensitivity so as to detect both locomotion and small movements (such as grooming, sniffing, and chewing) as would be prominent in stereotyped responses that tend to diminish locomotion and increase sniffing, licking, and chewing movements. Locomotor activity is detected selectively by setting monitor sensitivity to detect large, locomotor movements, and to minimize smaller movements already described.
All data presented in the Tables below are expressed as the mean results from 4-6 rats per condition, ±S.E.M. Stereotypy is expressed in rating units (maximum=3.0) and activity is expressed in arbitrary units of percent change, derived from EAM counts per unit time, relative to activity in control (saline) animals set at zero.
All the posttreatment doses of (+)APO were 3.0 mg/kg, s.c. The data
All posttreatment doses of (+)NPA were 3 mg/kg, s.c. The data are similar

Experiment [5] relates to dopamine (DA) receptors in the limbic system. The experiment is described as follows: Locomotor activity (spontaneous or aroused by (-)APO / (-)NPA), electronic activity monitor. The format is in vivo, rat. Particulars: for Locomotion: Table 4. As to the method: as §1
Rats (mean N=6 per condition) were tested for locomotor activity for 60 min following a single dose of (-)APO (0.3 mg/kg, SC), or its vehicle ("placebo" condition). The S(+) isomers were administered in a range of doses from 0 or 0.1 to 30 mg/kg, SC immediately following injection of (-)APO or its vehicle. Data are presented in FIG. 2 as mean EAM activity counts per hour SEM. In that figure, the dashed line labeled "control" represents the mean activity of rats given vehicle only and no aporphine (SD values are indicated by parallel light lines above and below the control mean).
Test agents (11substituted-N--propylnoraporphine isomers were given at a
dose of 3 mg/kg, ip (in 2 ml/kg) just prior to (-)apomorphine (APO, at 0.
mg/kg, ip, in 1 ml/kg) to rats (N = 6) tested in an electronic activity

Experiment [6] concerns DA in the limbic system (nucleus accumbens septi). The experiment in a line: Arousal (locomotor activity) induced by DA injected into nucleus accumbens septi. The format is in vivo, rat. The conditions noted are these: for activity counts (arousal induced by 16 μg DA in accumbens): 30 min, DA control 238 ± 38. The protocol: An experiment shown in Table 9 involves testing the effects of S(+) isomers of apomorphine (APO) and N-propylnorapomorphine (NPA) given systemically (intraperitoneally, ip), as well as S(+) methylenedioxy-N-propylnorapomorphine (MDO-NPA) given ip or orally (po, by orogastric intubation). […]. […] Activity was monitored for 30 min after injection of DA into the brain, which was done at 10 min after systemic dosing with an S(+)aporphine test compound.
Data are mean activity counts ± SEM (N = 6) for rats given DA into the
medial accumbens after pretreatment with an inhibitor of monoamine oxidas
(MA0), and monitored on EAM for 30 min (aporphine given 10 min before DA
systemicallyintraperitoneally [ip] or orally [po].

The test system of experiment [7] is DA in the corpus striatum (basal ganglia). The experiment is described as follows: Head posture (contralateral head deviation) after intrastriatal DA. The experiment is classed as in vivo, rat. The conditions noted are these: intrastriatal DA 16 μg; aporphine 3 mg/kg systemic (route not given).
For experiment [8], the system named is dopamine (DA) receptors in the limbic system. The experiment is described as follows: Locomotor activity (spontaneous or aroused by (-)APO / (-)NPA), electronic activity monitor. Particulars: Table 4; (+)APO 3.0 mg/kg s.c. after (-)APO 1.0 mg/kg. The experiment is classed as in vivo, rat.
Setting [9] is: (+)APO 3.0 mg/kg s.c. after (-)APO 0.3 mg/kg.
Where [10] appears, read: (+)APO 3.0 mg/kg s.c. after (-)APO 1.0 mg/kg.
The mark [11] stands for this setting: (+)APO 3.0 mg/kg s.c. after (-)APO 3.0 mg/kg.
The mark [12] stands for this setting: (+)APO 3.0 mg/kg s.c., (-)APO 0.

For the compound `CCCN1CCc2cccc3c2C1Cc1ccc(O)c(O)c1-3` (racemic) [(±)-NPA, (RS)-N-n-Propylnorapomorphine], the results for the concentration for half-maximal inhibition (IC50) at Dopamine Receptors [1] and at Dopamine Receptors [2] were 5 nM and 3.5 nM, respectively.
In the case of `CN1CCc2cccc3c2[C@@H]1Cc1ccc(O)c(O)c1-3` [(+)APO, S(+) isomers of apomorphine (APO)], the “Stereotypy Score” value is given as 0.89 ± 0.36 rating units in experiment [3] (setting [9]), 1.92 ± 0.21 rating units in experiment [3] (setting [10]), 2.93 ± 0.32 rating units in experiment [3] (setting [11]) and 0.32 ± 0.62 rating units in experiment [3] (setting [12]). Moreover, the “Total Activity” value in experiment [4] (setting [9]) is reported as 36.2 ± 0.92 percent change; in experiment [4] (setting [10]) it was 44.6 ± 0.75 percent change; in experiment [4] (setting [11]) it was 62.0 ± 0.48 percent change; in experiment [4] (setting [12]), -0.62 ± 0.33 percent change. The Locomotion in experiment [5] (setting [9]) is given as 36.2 ± 4.3 percent change; in experiment [5] (setting [11]), 42.1 ± 6.3 percent change; in experiment [5] (setting [12]), -0.84 ± 0.22 percent change; in experiment [8] it was 43.0 ± 5.2 percent change. Besides, the “ID50 to reduce the locomotor activating actions of (-)APO” value in experiment [5] (s.c., (-)APO 0.3 mg/kg) is given as 4 mg/kg. The “ID50, spontaneous locomotor arousal” value in experiment [5] (spontaneous activity) is more than 50 mg/kg. Besides, the “activity counts (arousal induced by 16 μg DA in accumbens)” value worked out at 246 ± 41 activity counts in experiment [6] (0.3 mg/kg ip), 190 ± 37 activity counts in experiment [6] (1.0 mg/kg ip) and 125 ± 19 activity counts in experiment [6] (3.0 mg/kg ip). In experiment [6] (Rattus norvegicus, ip, DA 16 μg in accumbens, read-out: ID50 (the source's name)), the ED50 turned out to be 4 mg/kg. This compound gave an ID50 in experiment [6] (ip, DA 16 μg in accumbens) of 3.6 mg/kg. The “Contralateral Head Deviation, Percent of Total” value in experiment [7] was 57.2% of Total. Further, in experiment [7], the “Contralateral Head Deviation, Time” value worked out at 412 ± 53 s.
